Experimental data as given in patent US8247351B2, “Insecticidal compositions having improved effect” (Bayer Cropscience AG, priority 2005, dated 2012).

What was measured:
Myzus persicae [1] = assay: Myzus persicae test, Example C (spraying top side of leaf, ammonium salt plus penetrant); type: in vivo; conditions: 120 g/ha active ingredient
Experimental: (§1) Solvent: 7 parts by weight dimethylformamide
(§2) Emulsifier: 1 part by weight alkylaryl polyglycol ether
(§3) An appropriate preparation of active ingredient is prepared by mixing 1 part by weight of active ingredient with the stated amounts of solvent and emulsifier and diluting the concentrate with water to the desired concentration. Where it is necessary to add ammonium salts, phosphonium salts or penetrant, the appropriate amount is added by pipette, after dilution, to each of the ready prepared product solutions. Single-leaf paprika plants (Capsicum annuum) heavily infested by the green peach aphid (Myzus persicae) are treated by spraying the top side of the leaf (spray volume 600 1/ha) with the preparation of active ingredient at the desired concentration. After the desired time the destruction in % is ascertained. 100% means that all of the animals have been killed; 0% means that no animals have been killed.

Myzus persicae [2] = assay: Myzus persicae test, Example B (spraying top side of leaf, ammonium salt boosting); type: in vivo; conditions: 120 g/ha active ingredient
Experimental: as §1, §2
as §3, with “ready-prepared” for “ready prepared”

[3] = Penetration of active ingredient through enzymatically isolated apple leaf cuticles (Examples A-1, A-2, A-3); type: in vitro ADME, apple trees of the Golden Delicious variety; conditions: 500 ppm in DMF/Emulgator W 7:1 (w/w)
Experimental: This test measured the penetration of active ingredients through enzymatically isolated cuticles of apple leaves.
The leaves used were cut in the fully developed state from apple trees of the Golden Delicious variety. The cuticles were isolated as follows: • first of all, leaf discs marked on the underside with dye and formed by punching were filled by means of vacuum infiltration with a pectinase solution (0.2% to 2% strength) buffered to a pH of between 3 and 4, • then sodium azide was added and • the leaf discs thus treated were left to stand until the original leaf structure broke down and the non-cellular cuticle underwent detachment.
Thereafter only those cuticles from the top leaf sides that were free from stomata and hairs were used. They were washed a number of times in alternation with water and with a buffer solution of pH 7. The clean cuticles obtained were, finally, applied to Teflon plaques, smoothed with a gentle jet of air, and dried.
In the next step the cuticular membranes obtained in this way were placed in stainless steel diffusion cells (i.e. transport chambers) for the purpose of membrane transport investigations. For these investigations the cuticles were placed centrally using tweezers on the edges of the diffusion cells, which were coated with silicone grease, and sealed with a ring, which was likewise greased. The arrangement had been chosen so that the morphological outer face of the cuticles was directed outwards, in other words to the air, while the original inner side was facing the interior of the diffusion cell.
The diffusion cells were filled with a 30% strength ethylene glycol/water solution. Penetration was determined by applying 10 μl of the spray liquor, whose composition is indicated below, to the outer face of each cuticle. The spray liquor is made up using local tap water of medium hardness.
After the spray liquors had been applied, the water was evaporated and the chambers were then inverted and placed in thermostated troughs in which the temperature and atmospheric humidity above the cuticle was adjustable by means of a gentle stream of air onto the cuticle with the spray coating (20° C., 60% rh). At regular intervals an autosampler took aliquots which were assayed for active ingredient by HPLC.
The figures indicated are average values from 8 to 10 measurements.
Example A-2 was carried out in the same way as in Example A-1.
Example A-3 was carried out in the same way as in Example A-1.

## Cc1ccc(-c2ccc(Cl)cc2)c(C)c1C1=C(O)C2(CCOCC2)NC1=O [Ex. I-1-a-2]
Myzus persicae [1]; RME (1 g/l)
  Degree of destruction/% after 4 days: 37%
Myzus persicae [1]; RME (1 g/l) + AS (1 g/l)
  Degree of destruction/% after 4 days: 92%

## CCOC(=O)OC1=C(c2cc(C)ccc2C)C(=O)N[C@]12CC[C@@H](OC)CC2 [Ex. I-1-c-1]
Myzus persicae [2]; AS (ammonium sulphate, 1 g/l)
  Degree of destruction/% after 3 days: 67%
Myzus persicae [2]; No AS
  Degree of destruction/% after 3 days: 37%

## Cc1cc(Cl)cc(C)c1C1=C(O)C2(CCOCC2)NC1=O [Example I-1-a-1]
[3]; Table A-1, EC + AS (ammonium sulphate, 1 g/l)
  Penetration after 24 h/%: 2.5%
[3]; Table A-1, EC + RME (1 g/l) + AS (1 g/l)
  Penetration after 24 h/%: 41%
[3]; Table A-1, EC + RME (rapeseed oil methyl ester, 1 g/l)
  Penetration after 24 h/%: 13.5%
[3]; Table A-1, EC alone, 20° C., 60% rh
  Penetration after 24 h/%: 0.6%
[3]; Table A-2, EC + RME (1 g/l) + AT (ammonium thiocyanate, 1 g/l)
  Penetration after 24 h/%: 12%
[3]; Table A-2, EC + RME (1 g/l)
  Penetration after 24 h/%: 3.5%
[3]; Table A-2, EC alone
  Penetration after 24 h/%: <0.2%
[3]; Table A-3, EC + RME (1 g/l) + Ammonium dihydrogen-phosphate (1 g/l)
  Penetration after 24 h/%: 42%
[3]; Table A-3, EC + RME (1 g/l) + Diammonium hydrogen-phosphate (1 g/l)
  Penetration after 24 h/%: 26%
[3]; Table A-3, EC + RME (1 g/l)
  Penetration after 24 h/%: 10%
